Data reported in patent publication US20240076272A1, “Activators of Heme Regulated Inhibitor Kinase (HRI)” (The Brigham and Women`s Hospital, Inc., priority 2019, published 2024).
“And” between values parts separate entries of the source, which are not always exact repeats. Equal values may be shown once.

How the values were obtained:
[1] = tested on: eIF2α phosphorylation (ATF-4 5′UTR luciferase reporter); test: surrogate eIF2α phosphorylation dual-luciferase reporter (DLR) assay; format: cell-based; conditions: F/R luciferase ratio normalized to DMSO wells (F/R=1); for fold induction at 1.25 µM: read-out: Fold stimulation of ATF-4 Surrogate eIF2α @ 1.25 μM; for fold induction at 5 µM: read-out: Fold stimulation of ATF-4 Surrogate eIF2α @ 5 μM
From the text: The dual luciferase expression vector and other plasmids used in the Examples provided herein have been previously reported (see e.g., Ziegeler et al, J. Biol. Chem. 285 (2010) 15408-15419). The dual luciferase surrogate eIF2α phosphorylation assay, has also been previously reported (see e.g., Chen et al, Nat. Chem. Biol. 7 (2011) 610-616). Briefly, a dual Renilla and Firefly luciferase mammalian reporter vector that transcribes both mRNAs from the same bi-directional enhancer/promoter complex was utilized for generation of surrogate eIF2α phosphorylation assay (see e.g., Ziegeler et al, J. Biol. Chem. 285 (2010) 15408-15419). Both mRNAs contained the same 90 nucleotide plasmid derived 5′UTR. In addition, 5′UTR of the Firefly luciferase open reading frame was fused in-frame to the 267 nucleotide ATF-4 5′UTR (see e.g., Chen et al, Nat. Chem. Biol. 7 (2011) 610-616).
Cells expressing firefly and renilla luciferases were assayed with a dual glow luciferase assay kit, per manufacturer's instruction (Promega Inc., Madison, WI). The data calculations were carried out as the ratio of firefly to renilla luciferase signal (see e.g., Ziegeler et al, J. Biol. Chem. 285 (2010) 15408-15419). Dose-response curves were obtained, and triplicate data points were fitted to the logistical sigmoidal model using nonlinear least-squares regression performed in GraphPad Prism 6.
All newly synthesized N,N′-disubstituted ureas were initially evaluated by testing in the surrogate eIF2α phosphorylation dual-luciferase reporter (DLR) assay (see e.g., Chen et al, Nat. Chem. Biol. 7 (2011) 610-616; and Ziegeler et al, J. Biol. Chem. 285 (2010) 15408-15419). Briefly, this assay takes advantage of the fact that activated HRI phosphorylates eIF2α which inhibits eIF2 guanine nucleotide exchange factor eIF2B, responsible for exchanging the GDP in the eIF2·GDP complex for GTP. The reduction in the recycling of eIF2·GDP into eIF2·GTP interferes with the formation of eIF2·GTP·Met-tRNAi ternary complex. […] These include mRNA coding for activating transcription factor 4 (ATF-4) (see e.g., Aktas et al, Oncotarget, 4 (2013) 1606-1617; Aktas et al, Oncotarget, 6 (2015) 6902-6914; and Aktas et al, Proc. Natl. Acad. Sci. U.S.A. 95 (1998) 8280-8285).
In the present assay, firefly (F) luciferase mRNA was fused to the 5′UTR of ATF-4 mRNA that had multiple uORFs, while renilla (R) luciferase mRNA was fused to a 5′UTR lacking any uORFs. Agents that reduce the amount of the eIF2·GTP·Met-tRNAi ternary complex, such as N,N′-disubstituted ureas that activate HRI, increase F luciferase expression while reducing the R luciferase expression, resulting in an increased F/R luciferase ratio. The ureas of the present application were tested at 10 μM, 5 μM, 2.5 μM, and 1.25 μM concentrations in 96-well assay plates (see e.g., Chen et al, Nat. Chem. Biol. 7 (2011) 610-616; and Bai et al, ChemBioChem, 14 (2013) 1255-1262). The activity scores as the F/R ratios were calculated for every compound-treated well and normalized to F/R ratio of vehicle-treated (DMSO) wells in the same plate, arbitrarily set at 1 (F/R=1). Data obtained in the surrogate dual-luciferase eIF2α phosphorylation (DLR) assay for the series of 1-phenyl-3/4-(4-trifluorometyl) phenoxy-cycloalkyl)ureas (4-CF3-ΦcAlkΦUs) and 1-phenyl-3-(5-(4-(trifluoromethyl) phenoxy)pyrimidin-2-yl)ureas (4-CF3-ΦOPyΦUs) described herein are shown in Tables 1-2.

cyclin D1 = test: Western blot, cyclin D1 expression in CRL-2813 cells; format: cell-based, human; conditions: 5 μM, 8 hours, Western blot (FIG. 2B)
Experimental: FIGS. 2A-2B show HRI activators of the present application induce eIF2α phosphorylation and modify its downstream effectors. In FIG. 2A, CRL-2813 cells were treated with 5 μM of each compound for 2 hours, cell lysates were probed with phosphorylated (P-eIF2α) and total eIF2α (T-eIF2α) and β-actin specific antibodies. In FIG. 2B, CRL-2813 cells were treated with 5 μM HRI activators for 8 hours and lysates were immunoblotted with antibodies against CHOP, p27^KiPl, cyclin D1 and β-actin.
Cells cultured under recommended media conditions were plated and maintained in serum-containing media without antibiotics in 14-cm plates (Nunc) until reaching 70% confluence. Cells were then treated with compounds for 6 h, washed with cold PBS once, and lysed with M-PER Mammalian Protein Extraction Reagent (Pierce) for 30 min on ice. The cell lysates were centrifuged at 12,000 RPM for 15 min and the supernatants were transferred to fresh tubes and the concentrations were determined by BCA (Pierce). Equal amount of proteins were mixed with Laemmli Sample Buffer, heated at 100° C. for 5 min, separated by SDS-PAGE, and probed with anti-phosphoserine-51-eIF2α (Phos-eIF2α), anti-total eIF2α-specific antibodies (Total-eIF2α) (Biosource International, Hopkinton, MA), anti-CHOP, anti-cyclin D1 or anti-actin (Santa Cruz Biotechnology, CA) using procedures substantially similar to previous reports (see e.g., Aktas et al, Mol. Cell. Biol. 17 (1997) 3850-3857).
Endogenous eIF2α is the best-known substrate of HRI and the upstream regulator of the eIF2·GTP·Met-tRNAi ternary complex abundance, while CHOP expression is a downstream effector of eIF2α phosphorylation. For assessing eIF2α phosphorylation, blotted cell lysates were treated for two hours with vehicle or selected compounds using antibodies specific for the total-eIF2α and the phosphorylated-eIF2α (T-eIF2α and [PhoS^51]-eIF2α), respectively (see e.g., Aktas et al, J. Nutr. 134 (2004) 2487S-2491S) (see FIG. 2A).

N#Cc1cc(NC(=O)N[C@H]2C[C@H](Oc3ccc(C(F)(F)F)cc3)C2)cc(C(F)(F)F)c1 [Compound 1-IV, 1-(3-Cyano-5-(trifluoromethyl)phenyl)-3-(trans-3-(4-(trifluoromethyl)phenoxy)cyclobutyl)urea]
Fold stimulation of ATF-4 Surrogate eIF2α @ 1.25 μM [1]: 4.4 ± 1.1 fold
fold induction at 1.25 µM [1]: 4.4
Fold stimulation of ATF-4 Surrogate eIF2α @ 5 μM [1]: 10 ± 1.8 fold
fold induction at 5 µM [1]: 10
expression of cyclin D1 relative to DMSO (cyclin D1): decreased the expression of cyclin D1

N#Cc1cc(NC(=O)N[C@H]2CC[C@H](Oc3ccc(C(F)(F)F)cc3)CC2)cc(C(F)(F)F)c1 [Compound 1-VI, 1-(3-cyano-5-trifluoromethyl) phenyl-3-(trans-4-(4-(trifluoromethyl)phenoxy)cyclohexyl)urea, reference compound]
Fold stimulation of ATF-4 Surrogate eIF2α @ 1.25 μM [1]: 5.7 fold and 5.7 ± 1.4 fold
Fold stimulation of ATF-4 Surrogate eIF2α @ 5 μM [1]: 13.8 fold and 13.8 ± 1.5 fold
expression of cyclin D1 relative to DMSO (cyclin D1): decreased the expression of cyclin D1

N#Cc1cc(F)cc(NC(=O)N[C@H]2CC[C@H](Oc3ccc(C(F)(F)F)cc3)CC2)c1 [Compound 4-VI, 1-(3-Cyano-5-fluorophenyl)-3-(trans-4-(4-(trifluoromethyl)phenoxy)cyclohexyl)urea]
fold induction at 1.25 µM [1]: 4.6 ± 0.7
fold induction at 5 µM [1]: 9.3 ± 1.3
expression of cyclin D1 relative to DMSO (cyclin D1): decreased the expression of cyclin D1

N#Cc1ccc(NC(=O)N[C@H]2CC[C@H](Oc3ccc(C(F)(F)F)cc3)CC2)cc1F [Compound 5-VI, 1-(4-Cyano-3-fluorophenyl)-3-(trans-4-(4-(trifluoromethyl)phenoxy)cyclohexyl)urea]
Fold stimulation of ATF-4 Surrogate eIF2α @ 1.25 μM [1]: 5.5 ± 0.4 fold
fold induction at 1.25 µM [1]: 5.5
fold induction at 5 µM [1]: 10.4 ± 1
expression of cyclin D1 relative to DMSO (cyclin D1): decreased the expression of cyclin D1
